Legend:
SW837 [1] = experiment: relative IC50 of cell viability (CellTiter-Glo); higher = less potent
Description: (§1)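 CellTiter-Glo proliferation assay in KRAS G12C mutant NCI-H2122 (72 h), SW837 (144 h) and NCI-H358 cells in 384-well plates. Monotherapy dose response was fitted with a four-parameter curve after normalisation to DMSO controls (% of control, PoC). IC50 is the relative IC50, averaged over replicates. Bottom is the fitted lower plateau in %PoC; Max.Conc. is the top dose tested.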

NCI-H2122 [2] = experiment: as above
Description: as §1

SW837 [3] = experiment: fitted bottom plateau of viability curve, % of DMSO control; higher = less maximal inhibition; extreme values may be limits of the assay
Procedure, shortened: (§2)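 Viability was measured by CellTiter-Glo luminescence after 72 h of compound exposure for NCI-H2122 and NCI-H358 or 144 h for SW837, and normalised to DMSO controls as percent of control. Relative IC50, averaged across replicates, and the lower plateau were taken from a four-parameter nonlinear fit.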

NCI-H2122 [4] = experiment: as above
Procedure, shortened: as §2

NCI-H358 = experiment: as above
Procedure, shortened: as §2

SMILES | relative IC50 of cell viability (SW837 [1]) | relative IC50 of cell viability (NCI-H2122 [2]) | fitted bottom plateau of viability curve (SW837 [3]) | fitted bottom plateau of viability curve (NCI-H2122 [4]) | fitted bottom plateau of viability curve (NCI-H358)
CCc1cnn2c(NCc3ccc[n+]([O-])c3)cc(N3CCCC[C@H]3CCO)nc12 (top concentration tested 1000 nM) | 25.9 nM | 8.91 nM | 5.65% | 3.3% | –
Cc1c(Cn2c(C)nc3c(C(=O)O)cc(N4CCOCC4)cc32)cccc1C(F)(F)F (top concentration tested 9999.9 nM) | – | – | 98.7% | 70.8% | 93.8%
O=C(C1CC1)N1CC[C@@H](Cn2c(-c3ccc(-c4ccc5occc5c4)cc3)nc3cnccc32)C1 (top concentration tested 9999.9 nM) | – | – | 91.7% | 75.1% | 96.6%
O=c1cc(-c2cccc3c2Sc2ccccc2S3)oc(N2CCOCC2)c1 (top concentration tested 9999.9 nM) | – | – | 101% | 70.7% | 76.8%
Cc1[nH]c(/C=C2\C(=O)Nc3ccc(S(=O)(=O)Cc4c(Cl)cccc4Cl)cc32)c(C)c1C(=O)N1CCC[C@@H]1CN1CCCC1 (top concentration tested 10000 nM) | 2390 nM | 3030 nM | 1.78% | 0.553% | –
NC(=O)c1cnc(N[C@@H]2CCCC[C@@H]2N)nc1Nc1cccc(-n2nccn2)c1 (top concentration tested 10000 nM) | 2110 nM | 3860 nM | 30.9% | 39.3% | –
CC(C)N(CCCNC(=O)Nc1ccc(C(C)(C)C)cc1)C[C@H]1O[C@@H](n2ccc3c(N)ncnc32)[C@H](O)[C@@H]1O (top concentration tested 50000 nM) | – | – | 93.4% | 67.3% | 81.5%
COc1cc2cc(c1Cl)N(C)C(=O)C[C@H](OC(=O)C(C)C)[C@]1(C)O[C@@H]1[C@H](C)[C@@H]1C[C@@](O)(NC(=O)O1)[C@H](OC)/C=C/C=C(\C)C2 [Ansamitocin P3] (top concentration tested 99.976 nM) | 0.162 nM | 0.0585 nM | 26.7% | 3.79% | –
COc1cc2nc(C)nc(N[C@H](C)c3cc(N)cc(C(F)(F)F)c3)c2cc1O[C@H]1CCOC1 [BI-3406 (SOSi)] (top concentration tested 1000.1 nM) | – | – | 102% | 69.4% | 82%
Nc1nc(Cl)nc2c1ncn2[C@@H]1O[C@H](CO)[C@@H](O)[C@@H]1F [Clofarabine] (top concentration tested 10000 nM) | 1150 nM | 322 nM | 13.4% | 23.7% | –
O=C(c1ccc(F)c(F)c1Nc1ccc(I)cc1F)N1CC(O)([C@@H]2CCCCN2)C1 [Cobimetinib] (top concentration tested 999.97 nM) | 178 nM | 139 nM | 31.2% | 3.48% | –
Nc1ccn([C@@H]2O[C@H](CO)[C@@H](O)[C@@H]2O)c(=O)n1 [Cytarabin] (top concentration tested 999.93 nM) | 949 nM | 238 nM | 0% | 32.3% | –
CC(=O)O[C@@]12CO[C@@H]1C[C@H](O)[C@@]1(C)C(=O)[C@H](O)C3=C(C)[C@@H](OC(=O)[C@H](O)[C@@H](NC(=O)OC(C)(C)C)c4ccccc4)C[C@@](O)([C@@H](OC(=O)c4ccccc4)[C@H]21)C3(C)C [Docetaxel] (top concentration tested 100.01 nM) | 2.73 nM | 1.68 nM | 22.5% | 4.04% | –
COc1cccc2c1C(=O)c1c(O)c3c(c(O)c1C2=O)C[C@@](O)(C(=O)CO)C[C@@H]3O[C@H]1C[C@H](N)[C@H](O)[C@H](C)O1 [Doxorubicin] (top concentration tested 1000 nM) | 142 nM | 207 nM | 1.81% | 34.5% | –
CN(NC(=O)CC(=O)NN(C)C(=S)c1ccccc1)C(=S)c1ccccc1 [Elesclomol] (top concentration tested 10000 nM) | 39 nM | 22.7 nM | 2.84% | 1.27% | –
COc1cc([C@@H]2c3cc4c(cc3[C@@H](O[C@@H]3O[C@@H]5CO[C@@H](C)O[C@H]5[C@H](O)[C@H]3O)[C@H]3COC(=O)[C@H]23)OCO4)cc(OC)c1O [Etoposide] (top concentration tested 10000 nM) | 1340 nM | 995 nM | 14.5% | 51.5% | –
CN1CC[C@H](c2c(O)cc(O)c3c(=O)cc(-c4ccccc4Cl)oc23)[C@H](O)C1 [Flavopiridol] (top concentration tested 500.11 nM) | 331 nM | 149 nM | 0% | 3.96% | –
N#CN=C(NCCCCCCOc1ccc(Cl)cc1)Nc1ccncc1 [GMX1778] (top concentration tested 9999.9 nM) | 30.6 nM | 210 nM | 17.9% | 5.11% | –
CCOC(=O)CCNc1cc(N2CCc3ccccc3CC2)nc(-c2ccccn2)n1 [GSK-J4] (top concentration tested 50000 nM) | 12300 nM | 64800 nM | 28.7% | 61.7% | –

SMILES | relative IC50 of cell viability (SW837 [1]) | relative IC50 of cell viability (NCI-H2122 [2]) | fitted bottom plateau of viability curve (SW837 [3]) | fitted bottom plateau of viability curve (NCI-H2122 [4]) | fitted bottom plateau of viability curve (NCI-H358)
CC(C)c1cc(-c2n[nH]c(=O)n2-c2ccc3c(ccn3C)c2)c(O)cc1O [Ganetespib] (top concentration tested 99.888 nM) | 87.1 nM | 11.2 nM | 0% | 8.33% | –
Nc1ccn([C@@H]2O[C@H](CO)[C@@H](O)C2(F)F)c(=O)n1 [Gemcitabine] (top concentration tested 99.925 nM) | 12.3 nM | 7.62 nM | 18% | 28.4% | –
CC(=O)[C@]1(O)Cc2c(O)c3c(c(O)c2[C@@H](O[C@H]2C[C@H](N)[C@H](O)[C@H](C)O2)C1)C(=O)c1ccccc1C3=O [Idarubicin] (top concentration tested 100.01 nM) | 15.3 nM | 9.8 nM | 38.7% | 39.7% | –
Cc1cn(CCN2CCN(c3ccccc3-c3cc(C#N)cc(C(=O)NCCCN4CCCC4)c3)CC2)c2ccccc12 [LLY-507] (top concentration tested 9999.9 nM) | 5600 nM | 2850 nM | 0% | 24% | –
COc1cc(Nc2ncc3c(n2)-c2ccc(Cl)cc2C(c2c(F)cccc2OC)=NC3)ccc1C(=O)O [MLN8237] (top concentration tested 999.95 nM) | 943 nM | 75.9 nM | 13.6% | 21.5% | –
CN(Cc1cnc2nc(N)nc(N)c2n1)c1ccc(C(=O)N[C@@H](CCC(=O)O)C(=O)O)cc1 [Methotrexate] (top concentration tested 10000 nM) | 57 nM | 7.98 nM | 31.9% | 37.4% | –
CO[C@@]12[C@H](COC(N)=O)C3=C(C(=O)C(C)=C(N)C3=O)N1C[C@@H]1N[C@@H]12 [Mitomycin C] (top concentration tested 10000 nM) | 240 nM | 460 nM | 0.69% | 2.51% | –
Cn1c(=O)n(-c2ccc(C(C)(C)C#N)cc2)c2c3cc(-c4cnc5ccccc5c4)ccc3ncc21 [NVP-BEZ235] (top concentration tested 999.9 nM) | 153 nM | 58.5 nM | 33.2% | 9.96% | –
COC(=O)c1ccc2c(c1)NC(=O)/C2=C(\Nc1ccc(N(C)C(=O)CN2CCN(C)CC2)cc1)c1ccccc1 [Nintedanib] (top concentration tested 10000 nM) | 2240 nM | 5990 nM | 8.69% | 50.6% | –
O=C(O)C(=O)O.[NH-][C@@H]1CCCC[C@H]1[NH-].[Pt+2] [Oxaliplatin] (top concentration tested 50000 nM) | 5890 nM | 9200 nM | 21% | 31.5% | –
CC(=O)O[C@H]1C(=O)[C@@]2(C)[C@H]([C@H](OC(=O)c3ccccc3)[C@]3(O)C[C@H](OC(=O)[C@H](O)[C@@H](NC(=O)c4ccccc4)c4ccccc4)C(C)=C1C3(C)C)[C@]1(OC(C)=O)CO[C@@H]1C[C@@H]2O [Paclitaxel] (top concentration tested 100.01 nM) | 12.5 nM | 3.22 nM | 25.6% | 4.65% | –
Cc1[nH]c2ccccc2c1CCNCc1ccc(/C=C/C(=O)NO)cc1 [Panobinostat] (top concentration tested 99.878 nM) | 20.9 nM | 16.4 nM | 0.651% | 11.3% | –
C/C=C1\NC(=O)[C@H]2CSSCC/C=C/[C@H](CC(=O)N[C@H](C(C)C)C(=O)N2)OC(=O)[C@H](C(C)C)NC1=O [Romidepsin] (top concentration tested 10000 nM) | 76.4 nM | 5.65 nM | 0.0763% | 0.385% | –
CC(C)(C)c1ccc(S(=O)(=O)NCc2ccc(C(=O)Nc3cccnc3)cc2)cc1 [STF-31] (top concentration tested 10000 nM) | 6500 nM | 5790 nM | 0% | 12.7% | –
CC(=O)Nc1cccc(-n2c(=O)n(C3CC3)c(=O)c3c(Nc4ccc(I)cc4F)n(C)c(=O)c(C)c32)c1 [Trametinib] (top concentration tested 1000 nM) | 33.4 nM | 21.7 nM | 11.6% | 3.01% | –
CNCc1ccc(-c2cc(-c3nc(-c4ccc(S(=O)(=O)C(C)C)cc4)cnc3N)on2)cc1 [VE-822/VX-970] (top concentration tested 9999.9 nM) | 807 nM | 278 nM | 2.47% | 0.375% | –
CC[C@]1(O)C[C@@H]2CN(CCc3c([nH]c4ccccc34)[C@@](C(=O)OC)(c3cc4c(cc3OC)N(C)[C@H]3[C@@](O)(C(=O)OC)[C@H](OC(C)=O)[C@]5(CC)C=CCN6CC[C@]43[C@@H]65)C2)C1 [Vinblastine] (top concentration tested 99.992 nM) | 80.2 nM | 4.34 nM | 0% | 4.54% | –
CCC1=C[C@@H]2CN(C1)Cc1c([nH]c3ccccc13)[C@@](C(=O)OC)(c1cc3c(cc1OC)N(C)[C@H]1[C@@](O)(C(=O)OC)[C@H](OC(C)=O)[C@]4(CC)C=CCN5CC[C@]31[C@@H]54)C2 [Vinorelbine] (top concentration tested 100.01 nM) | 17.1 nM | 9.06 nM | 42.9% | 5.21% | –
CN[C@H]1CN(c2ccc3c(=O)c(C(=O)O)cn(-c4nccs4)c3n2)C[C@@H]1OC [Vosaroxin] (top concentration tested 2500 nM) | 2310 nM | 778 nM | 0% | 34.3% | –

Reference: the supplement of paper PMC11424490
